Data: patent US12435044B2, “Pyridazinone herbicides and pyridazinone intermediates used to prepare a herbicide” (FMC Corporation, priority 2018, dated 2025)

Key:
Format in all cases: in vivo
[1] = test system: field poppy (Papaver rhoeas); assay: Test C postemergence greenhouse test; conditions: scale 0 to 100
Excerpt: Seeds of plant species selected from blackgrass (Alopecurus myosuroides), ryegrass, Italian (Lolium multiflorum), wheat, winter (winter wheat, Triticum aestivum), galium (catchweed bedstraw, Galium aparine), corn (Zea mays), crabgrass, large (Digitaria sanguinalis), foxtail, giant (Setaria faberii), johnsongrass (Sorghum halepense), lambsquarters (Chenopodium album), morningglory (Ipomoea coccinea), nutsedge, yellow (Cyperus esculentus), pigweed (Amaranthus retroflexus), ragweed (common ragweed, Ambrosia elatior), soybean (Glycine max), barnyardgrass (Echinochloa crus-galli), oilseed rape (Brassica napus), waterhemp (common waterhemp, Amaranthus rudis), pigweed, palmer (Amaranthus palmeri), kochia (Kochia scoparia), oat, wild (Avena fatua), surinam grass (Brachiaria decumbens), windgrass (Apera spica-venti), poinsettia, wild (Euphorbia heterophylla) and velvetleaf (Abutilon theophrasti) were planted into a silt loam soil and treated preemergence with test chemicals formulated in a non-phytotoxic solvent mixture which included a surfactant.
At the same time, plants selected from these crop and weed species and also chickweed (common chickweed, Stellaria media), buckwheat, wild (Polygonum convolvulus), mustard, wild (Sinapis arvensis), field poppy (Papaver rhoeas), field violet (Viola arvensis), nightshade (eastern black nightshade, Solanum ptycanthum), speedwell (bird's-eye speedwell, Veronica persica), horseweed (Conyza canadensis), cutleaf geranium (Geranium dissectum), and Canada thistle (Cirsium arvense) were planted in pots containing Redi-Earth® planting medium (Scotts Company, 14111 Scottslawn Road, Marysville, Ohio 43041) comprising spaghnum peat moss, vermiculite, wetting agent and starter nutrients and treated with postemergence applications of test chemicals formulated in the same manner. Plants ranged in height from 2 to 18 cm (1- to 4-leaf stage) for postemergence treatments. Treated plants and controls were maintained in a greenhouse for 13 to 21 d, after which time all species were compared to controls and visually evaluated. Plant response ratings, summarized in Table C-1 (postemergence) and C-2 (preemergence), are based on a scale of 0 to 100 where 0 is no effect and 100 is complete control. A dash (-) response means no test result.

[2] = test system: foxtail, giant (Setaria faberii); assay: Test C pre-/postemergence greenhouse test; conditions: scale 0 to 100
Procedure, shortened: (§1)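 Formulation: non-phytotoxic solvent mixture including surfactant. Preemergence on seeds in silt loam; postemergence on plants 2 to 18 cm tall in peat-based potting medium. Controls held alongside; visual evaluation at 13 to 21 d, 0 = no effect, 100 = complete control.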

[3] = test system: soybean (Glycine max); assay: Test C pre-/postemergence greenhouse test; conditions: scale 0 to 100
Procedure, shortened: as §1

[4] = test system: galium (catchweed bedstraw, Galium aparine); assay: Test C pre-/postemergence greenhouse test; conditions: scale 0 to 100
Procedure, shortened: as §1

[5] = test system: pigweed, palmer (Amaranthus palmeri); assay: Test C pre-/postemergence greenhouse test; conditions: scale 0 to 100
Procedure, shortened: as §1

[6] = test system: waterhemp (common waterhemp, Amaranthus rudis); assay: Test C pre-/postemergence greenhouse test; conditions: scale 0 to 100
Procedure, shortened: as §1

[7] = test system: oat, wild (Avena fatua); assay: Test C pre-/postemergence greenhouse test; conditions: scale 0 to 100
Procedure, shortened: as §1

[8] = test system: kochia (Kochia scoparia); assay: Test C pre-/postemergence greenhouse test; conditions: scale 0 to 100
Procedure, shortened: as §1

[9] = test system: lambsquarters (Chenopodium album); assay: Test C pre-/postemergence greenhouse test; conditions: Preemergence, scale 0 to 100
Procedure, shortened: as §1

[10] = test system: blackgrass (Alopecurus myosuroides); assay: Test C pre-/postemergence greenhouse test; conditions: scale 0 to 100
Procedure, shortened: as §1

[11] = test system: morningglory (Ipomoea coccinea); assay: Test C pre-/postemergence greenhouse test; conditions: Preemergence, scale 0 to 100
Procedure, shortened: as §1

Cc1ccc2ccc(F)cc2c1-c1c(O)c(Cl)nn(C)c1=O [Cpd. No. 21]
Plant response rating, Field Poppy ([1]; 16 g ai/ha): 60 | Plant response rating, Field Poppy ([1]; 31 g ai/ha): 70 | Plant response rating, Field Poppy ([1]; 62 g ai/ha): 75 | Plant response rating, Field Poppy ([1]; 125 g ai/ha): 98 | Plant response rating, Foxtail, Giant ([2]; Postemergence, 16 g ai/ha): 70 | Plant response rating, Foxtail, Giant ([2]; Postemergence, 31 g ai/ha): 85 | Plant response rating, Foxtail, Giant ([2]; Postemergence, 62 g ai/ha): 90 | Plant response rating, Foxtail, Giant ([2]; Postemergence, 125 g ai/ha): 93 | Plant response rating, Foxtail, Giant ([2]; Preemergence, 31 g ai/ha): 85 | Plant response rating, Foxtail, Giant ([2]; Preemergence, 61 g ai/ha): 10 | Plant response rating, Foxtail, Giant ([2]; Preemergence, 62 g ai/ha): 98 | Plant response rating, Foxtail, Giant ([2]; Preemergence, 125 g ai/ha): 100 | Plant response rating, Soybean ([3]; Postemergence, 16 g ai/ha): 10 | Plant response rating, Soybean ([3]; Postemergence, 31 g ai/ha): 13 | Plant response rating, Soybean ([3]; Postemergence, 62 g ai/ha): 20 | Plant response rating, Soybean ([3]; Postemergence, 125 g ai/ha): 23 | Plant response rating, Soybean ([3]; Preemergence, 31 g ai/ha): 0 | Plant response rating, Soybean ([3]; Preemergence, 61 g ai/ha): 0 | Plant response rating, Soybean ([3]; Preemergence, 62 g ai/ha): 0 | Plant response rating, Soybean ([3]; Preemergence, 125 g ai/ha): 0 | Plant response rating, Galium ([4]; Postemergence, 16 g ai/ha): 90 | Plant response rating, Galium ([4]; Postemergence, 31 g ai/ha): 95 | Plant response rating, Galium ([4]; Postemergence, 62 g ai/ha): 98 | Plant response rating, Galium ([4]; Postemergence, 125 g ai/ha): 78 | Plant response rating, Galium ([4]; Preemergence, 31 g ai/ha): 95 | Plant response rating, Galium ([4]; Preemergence, 61 g ai/ha): 90 | Plant response rating, Galium ([4]; Preemergence, 62 g ai/ha): 95 | Plant response rating, Galium ([4]; Preemergence, 125 g ai/ha): 95 | Plant response rating, Pigweed, Palmer ([5]; Postemergence, 16 g ai/ha): 30 | Plant response rating, Pigweed, Palmer ([5]; Postemergence, 31 g ai/ha): 30 | Plant response rating, Pigweed, Palmer ([5]; Postemergence, 62 g ai/ha): 30 | Plant response rating, Pigweed, Palmer ([5]; Postemergence, 125 g ai/ha): 95 | Plant response rating, Pigweed, Palmer ([5]; Preemergence, 31 g ai/ha): 55 | Plant response rating, Pigweed, Palmer ([5]; Preemergence, 61 g ai/ha): 20 | Plant response rating, Pigweed, Palmer ([5]; Preemergence, 62 g ai/ha): 70 | Plant response rating, Pigweed, Palmer ([5]; Preemergence, 125 g ai/ha): 90 | Plant response rating, Waterhemp ([6]; Postemergence, 16 g ai/ha): 80 | Plant response rating, Waterhemp ([6]; Postemergence, 31 g ai/ha): 85 | Plant response rating, Waterhemp ([6]; Postemergence, 62 g ai/ha): 98 | Plant response rating, Waterhemp ([6]; Postemergence, 125 g ai/ha): 90 | Plant response rating, Waterhemp ([6]; Preemergence, 31 g ai/ha): 85 | Plant response rating, Waterhemp ([6]; Preemergence, 61 g ai/ha): 80 | Plant response rating, Waterhemp ([6]; Preemergence, 62 g ai/ha): 95 | Plant response rating, Waterhemp ([6]; Preemergence, 125 g ai/ha): 98 | Plant response rating, Oat, Wild ([7]; Postemergence, 16 g ai/ha): 95 | Plant response rating, Oat, Wild ([7]; Postemergence, 31 g ai/ha): 98 | Plant response rating, Oat, Wild ([7]; Postemergence, 62 g ai/ha): 99 | Plant response rating, Oat, Wild ([7]; Postemergence, 125 g ai/ha): 100 | Plant response rating, Oat, Wild ([7]; Preemergence, 31 g ai/ha): 70 | Plant response rating, Oat, Wild ([7]; Preemergence, 61 g ai/ha): 45 | Plant response rating, Oat, Wild ([7]; Preemergence, 62 g ai/ha): 85 | Plant response rating, Oat, Wild ([7]; Preemergence, 125 g ai/ha): 85 | Plant response rating, Kochia ([8]; Postemergence, 16 g ai/ha): 13 | Plant response rating, Kochia ([8]; Postemergence, 31 g ai/ha): 18 | Plant response rating, Kochia ([8]; Postemergence, 62 g ai/ha): 28 | Plant response rating, Kochia ([8]; Postemergence, 125 g ai/ha): 28 | Plant response rating, Kochia ([8]; Preemergence, 31 g ai/ha): 20 | Plant response rating, Kochia ([8]; Preemergence, 61 g ai/ha): 5 | Plant response rating, Kochia ([8]; Preemergence, 62 g ai/ha): 70 | Plant response rating, Kochia ([8]; Preemergence, 125 g ai/ha): 90 | Plant response rating, Lambsquarters ([9]; 31 g ai/ha): 70 | Plant response rating, Lambsquarters ([9]; 61 g ai/ha): 75 | Plant response rating, Lambsquarters ([9]; 62 g ai/ha): 85 | Plant response rating, Lambsquarters ([9]; 125 g ai/ha): 98 | Plant response rating, Blackgrass ([10]; Postemergence, 16 g ai/ha): 35 | Plant response rating, Blackgrass ([10]; Postemergence, 31 g ai/ha): 60 | Plant response rating, Blackgrass ([10]; Postemergence, 62 g ai/ha): 65 | Plant response rating, Blackgrass ([10]; Postemergence, 125 g ai/ha): 70 | Plant response rating, Blackgrass ([10]; Preemergence, 31 g ai/ha): 50 | Plant response rating, Blackgrass ([10]; Preemergence, 61 g ai/ha): 35 | Plant response rating, Blackgrass ([10]; Preemergence, 62 g ai/ha): 85 | Plant response rating, Blackgrass ([10]; Preemergence, 125 g ai/ha): 85 | Plant response rating, Morningglory ([11]; 31 g ai/ha): 40 | Plant response rating, Morningglory ([11]; 61 g ai/ha): 5 | Plant response rating, Morningglory ([11]; 62 g ai/ha): 80 | Plant response rating, Morningglory ([11]; 125 g ai/ha): 95
